From patent publication US7045502B2, “Use of melagatran for the manufacture of a medicament for the treatment of Type 1 diabetes mellitus” (AstraZeneca AB, priority 2002, dated 2006)
“Also recorded” adds a separate entry of the source.

Key:
complement system = assay: Activation of complement in serum in wells of microtiter plates; assay type: biochemical; conditions: human serum, no islets, 0 to 10 μM, 30 min, 37° C.
Protocol: The direct effect of melagatran on the complement system was studied using a method in which serum was incubated in the wells of microtiter plates (Nilsson et al, Mol. Immunol., 30, 211 (1993)). Serum (100 μL) was added to each well of a 96-well microtiter plate together with melagatran at a final concentration of 0, 0.4, 1, 4, or 10 μM. After a 30-min incubation at 37° C., the serum was transferred to tubes containing EDTA (final concentration, 10 mM). These samples were stored at −70° C. before analysis of the complement fragment C3a (see below). In order to detect bound C3 fragments, the wells of the microtiter plates were washed with PBS containing 0.05% (v/v) TWEEN 20 and incubated with 100 μL of horseradish peroxidase (HRP)-conjugated anti-C3c (DAKO. AS, Glostrup, Denmark) for 60 min at 37° C. The binding of antibody was detected by the addition of 1,2-phenylendiamine dihydrochloride (Fluka, Switzerland), and the staining was monitored at 492 nm.
EDTA-plasma was analyzed as previously described (Nilsson Ekdahl et al, Scand. J. Immunol., 35, 85 (1992)). Monoclonal antibody 4SD17.3 was used as capture antibody. Bound C3a was detected with biotinylated polyclonal anti-C3a followed by HRP-conjugated streptavidin (Amersham, Buckinghamshire, UK). Zymosan-activated serum, calibrated against a solution of purified C3a, served as a standard, and the values are given as ng/mL.

human islets [1] = assay: Immunohistochemical staining of human islets after perfusion in the tubing loop model; assay type: cell-based; conditions: 10 μM melagatran
Source text: (§1) A modification of the model previously described was used (see Bennet et al, Diabetes, 48, 1907 (1999), Gong et al, J. Clin. Immunol., 16, 222 (1996) and Larsson et al, Immunophamnacology, 38, 119 (1997)). This device consisted of loops made of PVC (diameter, 6.3 mm; length, 390 mm) whose inner surface was furnished with immobilized heparin. The tubing was held together with a specially designed heparinized connector. A circular loop was formed when the ends of the connector were tightly pushed into the lumen of the tubing ends. A rocking apparatus, placed in a 37° C. incubator, was used to generate blood flow inside the loops. The loops were rocked at a setting that prevented the blood from coming into contact with the connectors. Up to twelve devices could be rocked at the same time. Ten 60-min islet experiments were performed, with islets isolated from five different donors. Melagatran (Astraeneca R&D Mölndal, Sweden), dissolved in 5 mM citrate buffer containing 0.15 M NaCl, pH 5.5, was tested at 0, 0.4 μM, 1 μM, 4 μM, and 10 μM. For each experiment, two loops of fresh human blood without islets, one containing CMRL 1066 (GibcoRBL, USA) and one containing 10 μM melagatran, were included as controls. Fresh ABO-compatible human blood from the same donor (5 mL) was added to each loop. The loops were placed on the rocking device for a 10-min preincubation with melagatran or citrate buffer. Thereafter, the loops were opened, and 150 μL of CMRL 1066, with or without 4 μL of islets (approximately 4,000 IEQ), was added to the loops, followed by another 60-min incubation on the rocking device at 37° C. Blood glucose levels were measured with a glucometer (Glucometer Elite; Bayer Diagnostics, Leverkusen, Germany) before the perfusion. After every perfusion the loop contents were filtered through 70 μm-diameter filters (Filcons, Cuptype; DAKO, Denmark). Both macroscopic blood clots and tissue recovered on the filters were frozen in liquid nitrogen for immunohistochemical staining. For immunohistochemical comparison, non-perfused islets were also frozen and stained by the same procedure. […]

[2] = tested on: human islets in ABO-compatible blood (IBMIR); assay: Tubing loop model: human islets perfused with fresh ABO-compatible human blood (IBMIR); assay type: cell-based
Source text: (§2) Pancreases were obtained from cadaver donors after consent was obtained either from the organ donor registry or from relatives. The organs were obtained from three female and two male normoglycemic donors (aged 59–85 years, three with blood group 0 and two with blood group A). The islets were isolated at the Division for Clinical Immunology at the University of Uppsala using a modification of previously described semiautomated digestion-filtration methods (Brandhorst et al, Cell Transplant., 7, 489 (1998) and Ricordi et al, Diabetes, 37, 413 (1988)). This isolation procedure was followed by further purification on a continuous density gradient in a refrigerated COBE 2991 centrifuge (COBE Blood Component Technology, Lakewood, Colo., USA). The islets were placed in untreated culture flasks and maintained in suspension culture at 37° C. (5% CO2) for. 1 to 5 days. The culture medium (CMRL 1066; ICN Biomedicals, Costa Mesa, Calif.) was changed every other day. The volume and purity of the islets were determined by microscopic sizing on a grid after staining with diphenylthiocarbazone. The purity of the islet preparations used in this study ranged from 40% and 95% (70±6.3%) (amount of endocrine compared to exocrine/duct tissue in the preparation; mean ±SD). Viability was assessed in terms of insulin secretion in response to a glucose challenge in a dynamic perfusion system (in 1.67 mmol/L glucose, then in 16.7 mmol/L, and finally back to 1.67 mmol/L).
All materials that came in contact with whole blood were furnished with a Corline heparin surface (Corline, Uppsala, Sweden) according to the manufacturer's recommendation (see J. Clin. Immunol., 16, 222 (1996)). The surface concentration of heparin was 0.5 μg/cm^2, corresponding to approximately 0.1 U/cm^2, with an antithrombin binding capacity of 2–4 pmol/cm^2.
Fresh human blood, obtained from healthy volunteers who had received no medication for at least 14 days, was collected in surface-heparinized 60-mL syringes (18 gauge, Microlance; Becton Dickinson, Franklin Lakes, N.J.). The cannulae of the syringes were connected to surface-heparinized-silicon tubing. During sampling, the syringes were rotated continuously.
as §1, with “perfusion.” for “perfusion. After every perfusion the loop contents were filtered through 70 μm-diameter filters (Filcons, Cuptype; DAKO, Denmark). Both macroscopic blood clots and tissue recovered on the filters were frozen in liquid nitrogen for immunohistochemical staining. For immunohistochemical comparison, non-perfused islets were also frozen and stained by the same procedure.”

human islets [3] = assay: Islet perfusion system (islet function, insulin secretion); assay type: cell-based; conditions: 10 μM melagatran
Source text: as §2, with “The purity of the islet preparations used in this study ranged from 40% and 95% (70±6.3%) (amount of endocrine compared to exocrine/duct tissue in the preparation; mean ±SD).” left out, “mmol/L). […]” for “mmol/L).”

[4] = islets, 10 μM melagatran, 60 min perifusion with ABO-compatible blood, mean ± SEM, n=10
[5] = islets, 10 μM melagatran, 60 min perifusion with ABO-compatible blood, plasma, mean ± SEM, n=10

N=C(N)c1ccc(CNC(=O)[C@@H]2CCN2C(=O)[C@H](NCC(=O)O)C2CCCCC2)cc1 [melagatran, HOOC—CH2—(R)Cgl-Aze-Pab-H]
Binding of C3 fragments to the polystyrene surface (complement system): no effect | Generation of C3a (complement system): no effect | Clot formation around islets (human islets [1]; 60 min perfusion with fresh human blood): no signs of clot formation | CD11b+ cells penetrated into the islets (human islets [1]; 60 min perfusion, anti-CD11b staining): only a few | CD41+ platelets surrounding the islet surface (human islets [1]; 60 min perfusion, anti-CD41a staining): almost no | FXIa-AT versus medium control ([2]; 4 μM melagatran, FIG. 1B): decreased to nearly the same level as the medium control | TAT versus medium control ([2]; 4 μM melagatran, FIG. 1B): decreased to nearly the same level as the medium control | Cell consumption and cascade system activation ([2]; 0.4 to 10 μM, 60 min): diminished cell consumption and cascade system activation in a dose-dependent manner | Release of β-TG ([2]; at ≧4 μM, FIG. 1A): normalized | Inhibition of prothrombin fragment 1+2 formation ([2]; compared with 4 μM needed for TAT and FXIa-AT, FIG. 1B): required higher doses | Inhibition of IBMIR (overall) ([2]; in vitro): almost completely inhibits IBMIR; also recorded: abrogated IBMIR | Granulocytes [2, 4]: 3.7 ± 0.3 ×10^9/L | Lymphocytes [2, 4]: 2.0 ± 0.1 ×10^9/L | Monocytes [2, 4]: 0.6 ± 0.1 ×10^9/L | Platelets [2, 4]: 170 ± 8.2 ×10^9/L | C3a [2, 5]: 510 ± 50 ng/mL | FXIa-AT [2, 5]: 0.9 ± 0.6 µmol/L | Insulin [2, 5]: 1500 ± 350 mU/L | Prothrombin F1 + 2 [2, 5]: 110 ± 28 nmol/L | TAT [2, 5]: 890 ± 160 µg/L | sC5b-9 [2, 5]: 140 ± 17.0 AU/mL | β-TG [2, 5]: 1300 ± 200 IU/mL | Complement activation product C3a ([2]; tubing loop with islets, 0 to 10 μM, FIG. 2): inhibited | Concentration at which an effect on most parameters was already observed ([2]; tubing loop, 60 min): 0.4 µM | Concentration at which cell counts were fully restored ([2]; tubing loop, 60 min, FIGS. 1A, 1C): ≥ 4 µM | Insulin release on perfusion of islets (human islets [3]): did not induce insulin release | Subsequent glucose stimulation of islets (human islets [3]; glucose 16.7 mmol/L): normal
